What was measured:
EPC2-ALI cells [1] = assay: Quantification of Ki67-positive EPC2-ALI cells; type: cell-based, human; conditions: for Ki67+ EPC2-ALI cells under IL-13-stimulation: compared to IL-13 alone; for Ki67+ EPC2-ALI cells, treatment alone: without IL-13, compared to steady-state (Vehicle)
Protocol: (§1) EPC2-ALI culture—hTERT immortalized human esophageal epithelial keratinocytes (hTERT-EPC2) were cultured under air-liquid-interface conditions as described 9, 41. In brief, EPC2-hTERT cells were seeded onto permeable (0.4 μm) transwell support (Corning Incorporated, Corning, NY, USA) and grown to confluence while fully submerged in low-calcium ([Ca2+]=0.09 mM) keratinocyte serum-free media (K-SFM) (Life Technologies; Carlsbad, CA). Epithelial differentiation was induced by culturing submerged cell monolayers in high-calcium K-SFM ([Ca2+]=1.8 mM) for 4 days (day 3 to 7). Cells were then exposed for 5 days (day 7 to 12) at ALI by removing cell media from the top chamber, to induce stratification.
Quantification of Ki67-positive EPC2-ALI cells—EPC2-ALI cells were cultured in the presence or absence of their respective stimulations for 48 hours. For immunofluorescence (IF) staining, formalin- or paraformaldehyde-fixed, paraffin-embedded transwell sections were sectioned, mounted on slides, and deparaffinized by using standard histologic procedures. Slides were then permeabilized in Tris-EDTA (1 mmol/L, pH 9.0) with 0.1% Tween-20, and antigen exposure was performed at 125° C. for 30 seconds in a decloaking chamber by using a pressure cooker. Slides were then blocked by 10% normal donkey serum for 1 hour, followed by overnight incubation of primary antibodies diluted in 10% normal donkey serum at a final concentration of 1 μg/mL: anti-Ki67 (1:1000; clone: SolA15; Invitrogen), slides were then washed and incubated with secondary antibody at RT for 1 hour. Slides were mounted with 4′-6-diamidino-2-phenylindole dihydrochloride Fluoromount-G (SouthernBiotech, Birmingham, Ala) mounting solution. Fluorescent imaging was performed with the Zeiss Apotome fluorescent microscope (Carl Zeiss Meditec, Dublin, Calif) using Nikon Elements software. Ki67+ cells were quantified as the number of Ki67+-labeled cells per total linear length of filter-attached EPC2-ALI cells using FIJI ImageJ. Three filters per condition from 3 individual experiments were quantitated.

STAT3 = target: T1, STAT3 (Homo sapiens, UniProt P40763); assay: Western blot of EPC2-ALI for total and phosphorylated STAT3; type: cell-based; conditions: SD-36 10 uM
T1 construct: endogenous in cells; host or cells: hTERT-EPC2 human esophageal epithelial keratinocytes at air-liquid interface (EPC2-ALI)
T1 sequence (P40763 whole entry): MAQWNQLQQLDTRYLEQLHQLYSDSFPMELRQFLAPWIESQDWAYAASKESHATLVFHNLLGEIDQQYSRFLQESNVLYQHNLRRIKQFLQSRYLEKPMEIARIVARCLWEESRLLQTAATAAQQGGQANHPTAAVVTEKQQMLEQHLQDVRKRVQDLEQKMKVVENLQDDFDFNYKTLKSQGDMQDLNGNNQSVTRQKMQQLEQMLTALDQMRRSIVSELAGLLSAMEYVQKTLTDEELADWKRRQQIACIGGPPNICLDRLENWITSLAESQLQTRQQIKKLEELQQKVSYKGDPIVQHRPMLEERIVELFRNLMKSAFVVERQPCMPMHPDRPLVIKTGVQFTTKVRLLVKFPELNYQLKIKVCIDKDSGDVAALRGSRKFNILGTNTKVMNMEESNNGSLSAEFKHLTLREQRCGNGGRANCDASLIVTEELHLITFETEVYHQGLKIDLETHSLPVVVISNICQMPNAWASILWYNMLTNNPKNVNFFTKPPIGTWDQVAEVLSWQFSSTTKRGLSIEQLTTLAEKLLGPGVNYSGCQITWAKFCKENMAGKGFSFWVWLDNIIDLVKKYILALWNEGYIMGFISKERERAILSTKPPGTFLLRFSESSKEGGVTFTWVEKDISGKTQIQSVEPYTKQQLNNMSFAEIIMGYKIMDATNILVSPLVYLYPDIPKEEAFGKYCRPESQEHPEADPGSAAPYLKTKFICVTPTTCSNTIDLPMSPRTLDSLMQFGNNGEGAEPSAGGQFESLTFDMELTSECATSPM
Protocol: as §1
Western blot—EPC2 ALI cells and primary esophageal cells were lysed following stimulation, using a protein extraction reagent (10% Glycerol, 20 mM Tris HCl pH7, 137 mM NaCl, 2 mM EDTA, 1% NP-40 in H2O) with Halt™ protease inhibitor cocktail (Thermo Fisher Scientific Incorporated; Rockford, IL, USA) and PhosSTOP phosphatase inhibitor cocktail tablet (Roche Diagnostics; Mannheim, Germany). […] of protein extract were separated on a 4%-12% Bis-Tris gel and transferred to a nitrocellulose membrane (Life Technologies; Carlsbad, CA). […]

EPC2-ALI cells [2] = assay: qPCR mRNA expression of EoE proliferation and inflammatory genes in EPC2-ALI; type: cell-based, human; conditions: in the presence of SD-36
Protocol: as §1
Quantitative PCR—RNA was extracted from EPC2-ALI cells by using the Quick-RNA Microprep Kit (Zymo Research Corporation) according to the manufacturer's protocol. Purified RNA (500 ng) was DNase treated and reverse transcribed to cDNA by using Superscript II RNase H Reverse Transcriptase (Thermo Fisher Scientific, Rockford, Ill), according to the manufacturer's instructions. cDNA for ANO1, CAPN14, CCL26, TP63, SFRP1, STAT3 and hypoxanthine phosphoribosyltransferase (HPRT) was quantified by using real-time PCR with the IQ SYBR Green Supermix (Bio-Rad Laboratories, Hercules, Calif) with the CFX96 Touch Real-Time PCR Detection System (Bio-Rad Laboratories). Quantitative PCR (qPCR) analyses were performed by using Bio-Rad CFX Manager Software (version 3.1; Bio-Rad Laboratories), and the results were normalized with HPRT amplified from the same cDNA mix and expressed as fold induction (2^-(ΔΔCT). Primers used for amplification were: […]

IL4Rα chain = target: T2, IL4Rα chain (Homo sapiens, UniProt P24394); conditions: adults with active EoE, weekly subcutaneous injections; cited from earlier work
T2 construct: adults with active EoE who received weekly subcutaneous injections of dupilumab; host or cells: human patients (in vivo)

IL-13 = target: T3, IL-13 (Homo sapiens, UniProt P35225); conditions: cited from earlier work
T3 construct: Treatment of adult EoE patients with RPC4046, a recombinant humanized monoclonal antibody against IL-13 improves histologic and endoscopic outcomes; host or cells: human patients (in vivo)
T3 sequence (P35225 25-146): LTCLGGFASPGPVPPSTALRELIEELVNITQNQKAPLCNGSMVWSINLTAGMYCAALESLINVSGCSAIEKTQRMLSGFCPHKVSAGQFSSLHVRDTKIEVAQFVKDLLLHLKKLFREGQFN

NC(=O)CC[C@H](NC(=O)[C@@H]1CC[C@@H]2CCN(C(=O)CCCCCC#Cc3cccc4c3CN(C3CCC(=O)NC3=O)C4=O)C[C@H](NC(=O)c3cc4cc(C(F)(F)P(=O)(O)O)ccc4[nH]3)C(=O)N21)C(=O)NC(c1ccccc1)c1ccccc1 (stereo partly drawn) [SD-36]
IL-13-induced increase in EPC2-ALI Ki-67+ cells (EPC2-ALI cells [1]; SD-36 10 uM, IL-13 100 ng/mL, 48 hours): attenuated
IL-13 induced phosphorylation of STAT3 Y705 and Y727 residues (STAT3; IL-13 100 ng/mL): total loss
degradation of STAT3 (total STAT3 protein) (STAT3; at steady state and following IL-13-stimulation (100 ng/mL)): led to degradation of STAT3
IL-13-induced mRNA expression of ANO1 (EPC2-ALI cells [2]): abolished
IL-13-induced mRNA expression of TP63 (EPC2-ALI cells [2]): abolished
IL-13 induction of canonical EoE inflammatory genes (CCL26, SLC9A3, CAPN14) mRNA (EPC2-ALI cells [2]): not significantly inhibited

O=S(=O)(NC1CCNCC1)c1cc(S(=O)(=O)c2ccccc2)ccc1C(F)(F)F [SFRP1inh]
Ki67+ EPC2-ALI cells under IL-13-stimulation (EPC2-ALI cells [1]): increase
Ki67+ EPC2-ALI cells, treatment alone (EPC2-ALI cells [1]): increase

dupilumab: fully human IgG4 monoclonal antibody that binds the IL4Rα chain and blocks both IL-4 and IL-13 signaling
esophageal distensibility (IL4Rα chain): increased
histologic and endoscopic severity scores (IL4Rα chain): decreased
peak esophageal eosinophil count (IL4Rα chain): reduced

B1: RPC4046: recombinant humanized monoclonal antibody against IL-13 (antibody, chains of the INN, looked up, V domains shown)
VH: EVTLRESGPGLVKPTQTLTLTCTLYGFSLSTSDMGVDWIRQPPGKGLEWLAHIWWDDVKRYNPALKSRLTISKDTSKNQVVLKLTSVDPVDTATYYCARTVSSGYIYYAMDYWGQGTLVTVSS
VL: DIQMTQSPSSLSASVGDRVTISCRASQDIRNYLNWYQQKPGKAPKLLIFYTSKLHSGVPSRFSGSGSGTDYTLTISSLQPEDIATYYCQQGNTLPLTFGGGTKVEIK
endoscopic, histologic and clinical improvement in long-term extension (IL-13; 52-week open-label LTE study, 360 mg/week): sustained endoscopic, histologic and clinical improvement
histologic and endoscopic outcomes (IL-13; adult EoE patients): improves

B2: rSFRP1: recombinant secreted frizzled-related protein 1, used as pharmacologic agonist (protein, UniProt Q8N474 32-314, looked up)
Secreted frizzled-related …: SEYDYVSFQSDIGPYQSGRFYTKPPQCVDIPADLRLCHNVGYKKMVLPNLLEHETMAEVKQQASSWVPLLNKNCHAGTQVFLCSLFAPVCLDRPIYPCRWLCEAVRDSCEPVMQFFGFYWPEMLKCDKFPEGDVCIAMTPPNATEASKPQGTTVCPPCDNELKSEAIIEHLCASEFALRMKIKEVKKENGDKKIVPKKKKPLKLGPIKKKDLKKLVLYLKNGADCPCHQLDNLSHHFLIMGRKVKSQYLLTAIHKWDKKNKEFKNFMKKMKNHECPTFQSVFK
Ki67+ EPC2-ALI cells under IL-13-stimulation (EPC2-ALI cells [1]): decrease
Ki67+ EPC2-ALI cells, treatment alone (EPC2-ALI cells [1]): sufficient to inhibit esophageal epithelial proliferation

Source: patent publication US20260240940A1, “REGULATING DISEASE OR DISORDER CHARACTERIZED BY ESOPHAGEAL EPITHELIAL PROLIFERATION THROUGH SECRETED FRIZZLED-RELATED PROTEIN 1 (SFRP1)” (The Regents of the University of Michigan, priority 2023, published 2026)
